Laboratory results as given in publication PMC5874719, “A π-Halogen Bond of Dibenzofuranones with the Gatekeeper Phe113 in Human Protein Kinase CK2 Leads to Potent Tight Binding Inhibitors” (Pharmaceuticals, 2018).
pIC50, pKi: −log10 of the molar value. “And” between values parts separate entries of the source, which are not always exact repeats. Equal entries are not always repeated. Where two headings read alike, the source gives them in different places.

How the values were obtained:
Assay type in all cases: biochemical
[1] = target: T1, surface displayed CK2α’ + CK2β (CK2α’ containing human CK2 holoenzyme) (Homo sapiens, UniProt P19784); assay: whole-cell CK2 selectivity assay, holoenzyme surface displayed on E. coli; details: for pIC50: CK2α’ + CK2β displayed on E. coli, 600 µM ATP, 100 µM substrate peptide; for factor of stronger inhibition of CK2α’ containing holoenzyme in comparison to CK2α containing holoenzyme: whole-cell assay, not statistically significant
T1 construct: surface-display (autodisplay) carrier protein; made in house; host or cells: Escherichia coli BL21 (DE3), enzyme left on the cell surface
T1 sequence (P19784 whole entry): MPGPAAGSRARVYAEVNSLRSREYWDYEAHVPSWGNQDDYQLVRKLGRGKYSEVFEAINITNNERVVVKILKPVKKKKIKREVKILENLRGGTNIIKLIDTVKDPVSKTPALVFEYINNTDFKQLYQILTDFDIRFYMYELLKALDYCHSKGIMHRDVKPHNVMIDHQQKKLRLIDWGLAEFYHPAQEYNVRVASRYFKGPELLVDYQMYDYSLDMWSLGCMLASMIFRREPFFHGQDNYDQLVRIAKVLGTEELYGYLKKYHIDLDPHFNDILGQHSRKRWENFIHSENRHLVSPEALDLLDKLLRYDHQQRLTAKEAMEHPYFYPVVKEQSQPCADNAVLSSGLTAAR
T1 sequence (P67870 whole entry partner): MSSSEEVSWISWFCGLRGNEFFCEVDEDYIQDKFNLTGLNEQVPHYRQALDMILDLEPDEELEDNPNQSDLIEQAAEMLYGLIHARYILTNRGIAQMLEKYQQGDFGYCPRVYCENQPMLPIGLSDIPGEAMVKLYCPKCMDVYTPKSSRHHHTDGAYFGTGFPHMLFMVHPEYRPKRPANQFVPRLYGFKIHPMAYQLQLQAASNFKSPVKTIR
From the text: We recently reported a whole cell CK2 activity assay, which can be used for testing the selectivity of compounds towards CK2α and CK2α’ [47]. It is based on the surface display of the human CK2 subunits, either α or α’ together with β on E. coli, were they are able to form a functional tetrameric holoenzymes, either ααββ or α’α’ββ, depending on which α isoform has been expressed. This technique was used to investigate whether 4a or 5 have preference to one of the two catalytic isoforms of CK2.
For this purpose, their IC50 were determined following the protocol of the recently described whole-cell CK2 selectivity assay. In summary, 78 µL of a bacterial suspension of Escherichia coli BL21 (DE3) either surface displaying CK2α + CK2β or CK2α’ + CK2β in kinase buffer (50 mM Tris/HCl, pH 8.5, 100 mM NaCl, 10 mM MgCl2 and 1 mM DTT) were supplemented with 2 µL of the test compound dissolved in DMSO and incubated at 37 °C and 400 rpm for 10 min. CK2 reactions were started by the addition of 120 µL of assay buffer (25 mM Tris/HCl, pH 7.5, 150 mM NaCl, 5 mM MgCl2, 1 mM DTT, 167 µM substrate peptide […] and 1 mM ATP) leading to a total reaction volume of 200 µL with final concentrations of 100 µM for the substrate peptide and 600 µM for ATP. […] After the samples were incubated for 120 min at 37 °C and 400 rpm, the CK2 presenting bacteria were removed by centrifugation (3850× g, 5 min, 4 °C). The obtained supernatants were transferred to the wells of a 96 well-microplate and finally supplemented with EDTA to a concentration of 12.5 mM to definitely stop the enzymatic reactions. The samples were then subjected to a Beckman Coulter pa800 plus (Krefeld, Germany) CE system and analyzed for phosphorylation of the substrate peptide. Samples containing pure DMSO served as controls for 0% inhibition and samples additionally lacking ATP served as controls for 100% inhibition. […] IC50 values were calculated from the resulting dose-response curves.
CK2α’ + CK2β (right column).
Mean values ± standard errors of
the means (SEM) are shown. […]

[2] = target: T2, FLT3 (Homo sapiens, UniProt P36888); assay: kinase selectivity profile; details: 10 µM inhibitor, 10 µM ATP
T2 construct: purchased Reaction Biology Corp
From the text: (§1) This demands further investigation.

[3] = target: T3, FLT3 (D835Y) (Homo sapiens, UniProt P36888, D835Y); assay: kinase selectivity profile; details: 10 µM inhibitor, 10 µM ATP
T3 construct: purchased Reaction Biology Corp
From the text: as §1

[4] = target: T4, CAMKK2 (Homo sapiens, UniProt Q96RR4); assay: kinase selectivity profile; details: 10 µM inhibitor, 10 µM ATP
T4 construct: purchased Reaction Biology Corp
T4 sequence (Q96RR4 whole entry): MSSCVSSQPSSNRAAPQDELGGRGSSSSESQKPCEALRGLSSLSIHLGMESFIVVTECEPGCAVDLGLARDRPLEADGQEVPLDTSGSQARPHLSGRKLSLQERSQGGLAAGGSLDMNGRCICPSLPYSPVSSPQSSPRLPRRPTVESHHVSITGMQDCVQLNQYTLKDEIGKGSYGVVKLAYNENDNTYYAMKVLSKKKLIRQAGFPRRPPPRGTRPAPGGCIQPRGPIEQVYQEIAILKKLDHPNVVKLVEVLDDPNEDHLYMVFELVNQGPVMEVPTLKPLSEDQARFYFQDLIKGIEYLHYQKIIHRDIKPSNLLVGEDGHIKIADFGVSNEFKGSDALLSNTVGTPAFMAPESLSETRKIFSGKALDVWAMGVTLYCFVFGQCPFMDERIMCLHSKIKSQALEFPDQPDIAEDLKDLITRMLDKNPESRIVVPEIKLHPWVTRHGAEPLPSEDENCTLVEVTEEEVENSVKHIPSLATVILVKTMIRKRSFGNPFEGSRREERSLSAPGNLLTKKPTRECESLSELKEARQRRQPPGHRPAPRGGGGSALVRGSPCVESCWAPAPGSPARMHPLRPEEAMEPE
From the text: as §1

[5] = target: T5, Aurora A (Homo sapiens, UniProt O14965); assay: kinase selectivity profile; details: 10 µM inhibitor, 10 µM ATP
T5 construct: purchased Reaction Biology Corp
T5 sequence (O14965 1-403): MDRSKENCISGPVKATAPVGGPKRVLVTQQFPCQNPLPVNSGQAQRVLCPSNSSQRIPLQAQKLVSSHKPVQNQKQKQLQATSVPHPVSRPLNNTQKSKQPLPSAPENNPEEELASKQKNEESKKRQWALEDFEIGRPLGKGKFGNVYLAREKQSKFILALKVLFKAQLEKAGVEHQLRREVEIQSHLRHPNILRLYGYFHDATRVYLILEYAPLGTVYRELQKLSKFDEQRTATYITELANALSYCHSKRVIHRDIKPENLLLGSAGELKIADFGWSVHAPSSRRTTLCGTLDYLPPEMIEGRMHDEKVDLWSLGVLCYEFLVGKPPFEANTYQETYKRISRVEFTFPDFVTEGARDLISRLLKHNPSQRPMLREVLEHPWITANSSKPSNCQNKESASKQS
From the text: as §1

[6] = tested on: panel of 61 human protein kinases; assay: kinase selectivity profile, whole panel; details: 10 µM inhibitor, 10 µM ATP
From the text: as §1

[7] = target: T6, human protein kinase CK2 holoenzyme (CK2α2β2) (Homo sapiens, UniProt P68400); assay: CE-based CK2 inhibition assay (phosphorylation of substrate peptide […]); details: for remaining activity at 10 µM: 10 µM compound, compared to activity without compound, read-out: residual enzymatic activity; for pIC50: CK2 holoenzyme, 100 µM ATP, 13 concentrations 0.01 nM to 10 µM
T6 construct: made in house
T6 sequence (P68400 whole entry): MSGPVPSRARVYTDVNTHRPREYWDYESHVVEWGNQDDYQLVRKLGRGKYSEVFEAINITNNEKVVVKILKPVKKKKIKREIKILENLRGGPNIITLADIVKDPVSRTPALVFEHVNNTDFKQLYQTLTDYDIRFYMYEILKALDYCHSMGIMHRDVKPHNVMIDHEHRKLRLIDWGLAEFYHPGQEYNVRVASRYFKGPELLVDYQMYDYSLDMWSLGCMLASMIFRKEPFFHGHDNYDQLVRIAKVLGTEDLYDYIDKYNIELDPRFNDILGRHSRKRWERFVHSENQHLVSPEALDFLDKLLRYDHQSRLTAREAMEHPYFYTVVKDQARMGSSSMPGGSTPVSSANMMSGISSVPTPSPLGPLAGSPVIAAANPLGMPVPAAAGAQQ
T6 sequence (P67870 whole entry partner): as the sequence (P67870 whole entry partner) above
Method: The phosporylation of an artificial substrate peptide ([…]) by the purified holoenzyme was analyzed in a capillary electrophoresis (CE) assay as described before. This peptide is commonly used for the determination of CK2 activity and phosphorylation was determined in the presence and in the absence of the compounds. For this purpose a stock solution of 10 mM in DMSO was prepared for each compound and diluted in the assay to a final concentration of 10 µM. […] Consequently 13 concentrations of both dibenzofurans, ranging from 0.01 nM to 10 µM were tested on their inhibition of CK2 dependent substrate phosphorylation in the presence of 100 μM ATP. […] This can be used to determine the so-called apparent Ki (Ki app) for different substrate (ATP) concentrations.
Human protein kinase CK2 holoenzyme was pre-incubated for 10 min with 13 different concentrations of each compounds ranging from 0.01 nM to 10 μM before the enzymatic activity was determined. […] The resulting inhibition in % was set into relation to the concentration of the corresponding compound in a logarithmic scale. For the calculation of the sigmoidal curve fitting the date GraphPad Prism (GraphPad, La Jolla, CA, USA) was used, as well as for the compound concentrations corresponding to 50% enzyme inhibition.
Phosphorylation of the substrate peptide […] by human protein kinase CK2 holoenzyme was determined in the CE assay at different ATP-concentrations (6, 30, 60, 150, 300, and 400 μM).
In order to determine the inhibition toward human protein kinase CK2 holoenzyme, the dibenzo[b,d]furan derivatives were subjected to the CE-based CK2 assay, as already described for other novel CK2 inhibitors before. In summary, 78 µL of kinase buffer (50 mM Tris/HCl, pH 7.5, 100 mM NaCl, 10 mM MgCl2 and 1 mM DTT) containing 0.25 µg CK2 holoenzyme were supplemented with 2 µL of the test-compound dissolved in DMSO and incubated at 37 °C for 10 min. After the addition of 120 µL of assay buffer (25 mM Tris/HCl, pH 8.5, 150 mM NaCl, 5 mM MgCl2, 1 mM DTT, 190 µM substrate peptide […] and 100 µM ATP) the CK2 reactions were carried out for 15 min at 37 °C, before they were stopped by ice cooling and the addition of 5 µL of EDTA (10 mM, pH 8.0). The samples were then analyzed for phosphorylation of the CK2 substrate peptide by capillary electrophoresis. […] Controls for 100% and 0% inhibition were realized by samples containing pure DMSO and samples additionally lacking the CK2 holoenzyme. IC50 were calculated from the obtained dose response curves.

[8] = Morrison equation, ATP 6–400 µM, best fit line extrapolated to ATP concentration = 0, read-out: apparent Ki (Ki app)

| SMILES | pIC50 [1] | factor of stronger inhibition of CK2α’ containing holoenzyme in comparison to CK2α containing holoenzyme [1] | kinase inhibited more than 70% at 10 µM concentration [2] | kinase inhibited more than 70% at 10 µM concentration [3] | kinase inhibited more than 70% at 10 µM concentration [4] | kinase inhibited more than 70% at 10 µM concentration [5] | number of kinases out of the 61 kinases inhibited to more than 70% [6] | remaining activity at 10 µM [7] | pIC50 [7] | pKi [7, 8] | pKi ([7]; repeated with double the amount of the enzyme CK2, different ATP concentrations, read-out: Ki app) |
| --- | --- | --- | --- | --- | --- | --- | --- | --- | --- | --- | --- |
| COc1ccc(N/C=C2\C(=O)CCc3c2oc2cc(Cl)c(O)c(Cl)c32)cc1 [4a, 7,9-dichloro-1,2-dihydro-8-hydroxy-4-[(4-methoxyphenylamino)methylene]dibenzo[b,d]furan-3(2H)-one] | 7.37 | 1.5 | FLT3 | FLT3 (D835Y) | CAMKK2 | Aurora A | 6 | < 1% | 8.15 and 8.30 | 9.39 and 9.40 | ~8.40 |
| COc1ccc(/N=C/c2c(O)ccc3c2oc2cc(Cl)c(O)c(Cl)c23)cc1 [compound 5, (E)-1,3-dichloro-6-[(4-methoxyphenylimino)methyl]dibenzo[b,d]furan-2,7-diol] | 7.14 | 1.5 | FLT3 | FLT3 (D835Y) | CAMKK2 | Aurora A | 11 | < 1% | 8.30 and 8.15 | 9.34 and 9.40 |  |
